Where two headings read alike, the source gives them in different places.
Assays:
hNAMPT protein = hNAMPT protein (Homo sapiens (Human), UniProt P43490); experiment: NAMPT enzyme assay (TR-FRET/HTRF, BodiPY ligand, anti 6His-Tb); format: binding; conditions: for inhibition at 1 µM: read-out: Percent Inhibition; for IC50: read-out: IC50
Procedure, shortened: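 TR-FRET binding assay in which His-tagged human NAMPT with anti-6His-Tb is displaced by compound from a BodiPY ligand, incubated 1 h at rt in the dark. Excitation was at 320 nm, with the 520/486 nm emission ratio read. IC50 was fitted from inhibition relative to DMSO controls.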

PC3 cells = experiment: PC3 growth inhibition (Cell-titer glo, 72 hours); format: cell-based; conditions: Homo sapiens, PC-3, PC3 cells, 72 hours, Cell-titer glo, read-out: Percent Inhibition (PC3 growth inhibition); for inhibition at 1.667 µM: compound concentration 1.667 μM; for inhibition at 1 µM: compound concentration 1 μM
Procedure, shortened: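 PC3 cells in RPMI1640 seeded overnight at 37 °C, 5% CO2, then exposed to compound diluted in AIM serum-free medium for 72 h. Viability by CellTiter-Glo luminescence vs DMSO controls; single-concentration % remaining viability (1 μM or 1.667 μM), or GI50/LD50 from curves.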

[1] = NAMPT inhibition at compound concentration 1 μM
[2] = NAMPT inhibition, IC50 range class

Sequence of hNAMPT protein (P43490 whole entry): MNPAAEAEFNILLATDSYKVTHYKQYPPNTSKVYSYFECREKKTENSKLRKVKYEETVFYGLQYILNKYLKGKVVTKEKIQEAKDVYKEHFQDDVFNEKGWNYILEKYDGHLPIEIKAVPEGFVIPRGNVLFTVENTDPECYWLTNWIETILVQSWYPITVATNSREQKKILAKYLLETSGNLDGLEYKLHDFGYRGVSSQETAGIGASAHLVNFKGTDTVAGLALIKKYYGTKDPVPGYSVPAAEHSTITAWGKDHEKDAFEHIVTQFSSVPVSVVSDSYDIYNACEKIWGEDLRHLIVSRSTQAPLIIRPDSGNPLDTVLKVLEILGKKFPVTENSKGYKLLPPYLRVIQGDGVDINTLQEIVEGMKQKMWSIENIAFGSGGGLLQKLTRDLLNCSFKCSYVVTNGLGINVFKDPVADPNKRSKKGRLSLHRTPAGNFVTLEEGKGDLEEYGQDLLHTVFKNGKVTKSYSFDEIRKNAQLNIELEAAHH

Row | SMILES | inhibition at 1 µM (hNAMPT protein; [1]) [%] | IC50 (hNAMPT protein; [2]) [µM] | inhibition at 1.667 µM (PC3 cells) [%] | IC50 (hNAMPT protein; NAMPT IC50 range class) [µM] | inhibition at 1 µM (hNAMPT protein; compound concentration 1 μM) [%] | inhibition at 1 µM (PC3 cells) [%] | inhibition at 1 µM (hNAMPT protein) [%]
1 | O=C(NCCCc1ncc[nH]1)c1ccc2nc(-c3ccc(F)cc3)c(-c3ccc4c(c3)OCO4)nc2c1 [Compound I-461, 3-(1,3-benzodioxol-5-yl)-2-(4-fluorophenyl)-N-[3-(1H-imidazol-2-yl)propyl]quinoxaline-6-carboxamide] | 86 | 0.1 to 0.5 | 2 |  |  |  | 
2 | O=C(NCCCc1ncc[nH]1)c1ccc2nc(OCc3c[nH]cn3)c(-c3ccc(F)cc3)nc2c1 [Compound I-356, 3-(4-fluorophenyl)-2-(1H-imidazol-4-ylmethoxy)-N-[3-(1H-imidazol-2-yl)propyl]quinoxaline-6-carboxamide] |  |  | 4 | 0.5 to 1 | 63 |  | 
3 | CC(Oc1nc2ccc(C(=O)NCCCc3ncc[nH]3)cc2nc1-c1ccc(F)cc1)c1ccccc1 (stereo not drawn) [Compound I-349, 3-(4-fluorophenyl)-N-[3-(1H-imidazol-2-yl)propyl]-2-(1-phenylethoxy)quinoxaline-6-carboxamide] |  |  | 3 | < 0.1 | 91 |  | 
4 | O=C(NCCCc1ncc[nH]1)c1ccc2nc(OCCc3ccccn3)c(-c3ccc(F)cc3)nc2c1 [Compound I-489, 3-(4-fluorophenyl)-N-[3-(1H-imidazol-2-yl)propyl]-2-[2-(pyridin-2-yl)ethoxy]quinoxaline-6-carboxamide] | > 99 | < 0.1 | 2 |  |  |  | 
5 | COc1cccc(-c2nc3cc(C(=O)NCCCc4ncc[nH]4)ccc3nc2N2CCCCC2)c1 [Compound I-183, N-[3-(1H-imidazol-2-yl)propyl]-3-(3-methoxyphenyl)-2-(piperidin-1-yl)quinoxaline-6-carboxamide] |  |  | 2 | < 0.1 | > 99 |  | 
6 | O=C(NCCCc1ncc[nH]1)c1ccc2nc(N3CCC(N4CCOCC4)CC3)c(-c3ccccc3)nc2c1 [Compound I-18, N-[3-(1H-imidazol-2-yl)propyl]-2-[4-(morpholin-4-yl)piperidin-1-yl]-3-phenylquinoxaline-6-carboxamide] |  |  | 2 | < 0.1 | 100 |  | 
7 | NC(=O)c1ccc(-c2nc3cc(C(=O)NCCCn4ccnc4)ccc3nc2-c2ccccc2)cc1 [Compound I-6, 3-(4-carbamoylphenyl)-N-[3-(1H-imidazol-1-yl)propyl]-2-phenylquinoxaline-6-carboxamide] |  |  |  | 2 to 10 | 20 | 91 | 
8 | O=C(NCCCc1ncc[nH]1)c1ccc2nc(N3CC4(COC4)C3)c(-c3ccc(F)cc3)nc2c1 [Compound I-154, 3-(4-fluorophenyl)-N-[3-(1H-imidazol-2-yl)propyl]-2-(2-oxa-6-azaspiro[3.3]hept-6-yl)quinoxaline-6-carboxamide] |  |  | 2 | < 0.1 | 98 |  | 
9 | O=C(NCCOc1cccnc1)c1ccc2nc(Cl)c(-c3ccc(F)cc3)nc2c1 [Compound I-86, 2-chloro-3-(4-fluorophenyl)-N-[2-(pyridin-3-yloxy)ethyl]quinoxaline-6-carboxamide] |  |  | 3 | < 0.1 | 62 |  | 
10 | C[C@@H]1CN(c2nc3ccc(C(=O)NCCCc4ncc[nH]4)cc3nc2-c2ccc(F)cc2)C[C@H](C)O1 [Compound I-383, 2-[cis-2,6-dimethylmorpholin-4-yl]-3-(4-fluorophenyl)-N-[3-(1H-imidazol-2-yl)propyl]quinoxaline-6-carboxamide] |  |  | 2 | < 0.1 | 99 |  | 
11 | O=C(NCCCc1ncc[nH]1)c1ccc2nc(-c3ccc(F)cc3)c(-c3ccc4c(c3)OCCO4)nc2c1 [Compound I-320, 3-(2,3-dihydro-1,4-benzodioxin-6-yl)-2-(4-fluorophenyl)-N-[3-(1H-imidazol-2-yl)propyl]quinoxaline-6-carboxamide] |  |  | 3 | 0.5 to 1 | 63 |  | 
12 | CC(C)(C)OC(=O)NCc1ccc(-c2nc3ccc(C(=O)NCCCn4ccnc4)cc3nc2-c2ccccc2)cc1 [Compound I-148, tert-Butyl [4-(6-{[3-(1H-imidazol-1-yl)propyl]carbamoyl}-3-phenylquinoxalin-2-yl)benzyl]carbamate] |  |  |  | 0.1 to 0.5 |  | 1 | 85
13 | O=C(NCCCc1nccs1)c1ccc2nc(N3CCC(O)CC3)c(-c3ccc(F)cc3)nc2c1 [Compound I-77, 3-(4-Fluorophenyl)-2-(4-hydroxypiperidin-1-yl)-N-[3-(1,3-thiazol-2-yl)propyl]quinoxaline-6-carboxamide] |  |  | > 99 | 0.1 to 0.5 | 86 |  | 
14 | C[C@@H]1CN(c2nc3ccc(C(=O)NCCCc4ccc(N)nc4)cc3nc2-c2ccc(F)cc2)C[C@H](C)O1 [Compound I-485, N-[3-(6-aminopyridin-3-yl)propyl]-2-[cis-2,6-dimethylmorpholin-4-yl]-3-(4-fluorophenyl)quinoxaline-6-carboxamide] | 96 | < 0.1 | 2 |  |  |  | 
15 | COc1cccc(-c2nc3cc(C(=O)NCCCn4ccnc4)ccc3nc2N2CCOCC2)c1 [Compound I-55, N-[3-(1H-imidazol-1-yl)propyl]-3-(3-methoxyphenyl)-2-(morpholin-4-yl)quinoxaline-6-carboxamide] |  |  |  | < 0.1 | 102 | -7 | 
16 | O=C(NCCCc1c[nH]cn1)c1ccc2nc(-c3ccc(F)cc3)c(-c3ccc(F)cc3)nc2c1 [Compound I-192, 2,3-bis(4-fluorophenyl)-N-[3-(1H-imidazol-4-yl)propyl]quinoxaline-6-carboxamide] |  |  |  | 0.1 to 0.5 | 78 | -7 | 
17 | O=C(NCCCn1ccnc1)c1ccc2nc(N3CCC(N4CCC(O)CC4)CC3)c(-c3ccccc3)nc2c1 [Compound I-210, 2-(4-hydroxy-1,4′-bipiperidin-1′-yl)-N-[3-(1H-imidazol-1-yl)propyl]-3-phenylquinoxaline-6-carboxamide] |  |  |  | < 0.1 | 95 | -2 | 
18 | O=C(NCCCn1ccnc1)c1ccc2nc(-c3ccccc3)c(-c3ccc4cc[nH]c4c3)nc2c1 [Compound I-227, N-[3-(1H-imidazol-1-yl)propyl]-3-(1H-indol-6-yl)-2-phenylquinoxaline-6-carboxamide] |  |  |  | 0.5 to 1 | 68 | 1 | 
19 | O=C(NCCCc1ncc[nH]1)c1ccc2nc(-c3ccc(F)cc3)c(-c3ccc(Cl)c(Cl)c3)nc2c1 [Compound I-397, 3-(3,4-dichlorophenyl)-2-(4-fluorophenyl)-N-[3-(1H-imidazol-2-yl)propyl]quinoxaline-6-carboxamide] | 97 | < 0.1 | 2 |  |  |  | 
20 | O=C(NCCCc1ncc[nH]1)c1ccc2nc(OCC3CCC3)c(-c3ccc(F)cc3)nc2c1 [Compound I-329, 2-(cyclobutylmethoxy)-3-(4-fluorophenyl)-N-[3-(1H-imidazol-2-yl)propyl]quinoxaline-6-carboxamide] |  |  | 3 | < 0.1 | 95 |  | 
21 | O=C(NCCCn1ccnc1)c1ccc2nc(Oc3ccccc3)c(-c3ccccc3)nc2c1 [Compound I-80, N-[3-(1H-Imidazol-1-yl)propyl]-2-phenoxy-3-phenylquinoxaline-6-carboxamide] |  |  |  | 0.5 to 1 |  | 1 | 65
22 | CCOc1nc2ccc(C(=O)NCCCc3ncc[nH]3)cc2nc1-c1ccc(F)cc1 [Compound I-440, 2-ethoxy-3-(4-fluorophenyl)-N-[3-(1H-imidazol-2-yl)propyl]quinoxaline-6-carboxamide] | 94 | < 0.1 | 3 |  |  |  | 
23 | O=C(NCCCc1ncc[nH]1)c1ccc2nc(OCc3ccccn3)c(-c3ccc(F)cc3)nc2c1 [Compound I-396, 3-(4-fluorophenyl)-N-[3-(1H-imidazol-2-yl)propyl]-2-(pyridin-2-ylmethoxy)quinoxaline-6-carboxamide] | 98 | < 0.1 | 2 |  |  |  | 
24 | O=C(NCCCn1ccnc1)c1ccc2nc(N3CCS(=O)(=O)CC3)c(-c3ccccc3)nc2c1 [Compound I-289, 2-(1,1-dioxidothiomorpholin-4-yl)-N-[3-(1H-imidazol-1-yl)propyl]-3-phenylquinoxaline-6-carboxamide] |  |  |  | 1 to 2 | 45 | -7 | 
25 | O=C(NCCCc1ncc[nH]1)c1ccc2nc(OCC3COC3)c(-c3ccc(F)cc3)nc2c1 [Compound I-348, 3-(4-fluorophenyl)-N-[3-(1H-imidazol-2-yl)propyl]-2-(oxetan-3-ylmethoxy)quinoxaline-6-carboxamide] |  |  | 3 | < 0.1 | > 99 |  | 
26 | CCc1ccc(-c2nc3cc(C(=O)NCCCc4ncc[nH]4)ccc3nc2-c2ccc(F)cc2)cc1 [Compound I-382, 3-(4-ethylphenyl)-2-(4-fluorophenyl)-N-[3-(1H-imidazol-2-yl)propyl]quinoxaline-6-carboxamide] |  |  | 3 | 0.5 to 1 | 55 |  | 
27 | CC(C)Oc1nc2ccc(C(=O)NCCc3cncn3C)cc2nc1-c1ccc(F)cc1 [Compound I-424, 3-(4-fluorophenyl)-2-isopropoxy-N-[2-(1-methyl-1H-imidazol-5-yl)ethyl]quinoxaline-6-carboxamide] | 76 | 0.1 to 0.5 | 1 |  |  |  | 
